According to PMC7139549, “TLD1433 Photosensitizer Inhibits Conjunctival Melanoma Cells in Zebrafish Ectopic and Orthotopic Tumour Models” (Cancers, 2020):
Read-outs that look alike come from different tables or passages of the source.

What was measured:
[1] = system: CRMM1 conjunctival melanoma cell line; test: SRB cell viability assay, CRMM1; assay type: cell-based, Human
Method: (§1) TLD1433 is known to generate reactive oxygen species (ROS) with high quantum efficacy in many cancer cell lines. However, there is no report of the in vitro toxicity of this compound in eye melanoma (UM) cell lines. We determined the cell viability of three conjunctival melanoma cell lines (CRMM1, CRMM2 and CM2005.1), and three uveal melanoma cell lines (OMM1, OMM2.5, MEL270) in the presence of TLD1433, both in the dark or under green light irradiation (21 mW/cm^2, 19 J/cm^2, 520 nm, 15 min), and compared this viability to epidermoid carcinoma A431 and cutaneous melanoma A375 cell lines under the same conditions. The protocol used was based on previous work from the Bonnet group, and differed slightly from recommendations from McFarland et al.. […] The effective concentration (EC50) values, i.e., the concentration required to reduce cell viability by 50% compared to untreated wells, were assessed by fitting the dose-response curves with a Hill equation. The phototoxicity index (PI), defined as the ratio of the dark EC50 to the light EC50, was also calculated and represents the amplification of TLD1433 activity with a light trigger. […]
(§2) Figure 2 Cell viability after TLD1433 treatment of eight tumour cell lines (CRMM1, CRMM2, CM2005.1, OMM1, OMM2.5, MEL270, A431, A375). […] The absorbance of Sulforhodamine B in solution was measured at 520 nm. […]
(§3) At day 0, cells were detached using 1mL of trypsin, resuspended in 4 mL of media and transferred to a 15 mL corning falcon tube. Cells were counted using trypan blue and BioRad® TC20™ automated cell counter (Figure 11). Dilutions of 6000 (CRMM1), 6000 (CRMM2), 8000 (CM2005.1), 6000 (OMM1), 6000 (OMM2.5), 6000 (MEL270) 8000 (A431), and 4000 (A375) cells/well were calculated from each cell suspension at a final volume of 6 mL using the following formula: Vc=(Vt×10C)/Lc where Vt = total volume of solution, C = number of cells per well/per 100 μL and Lc = live cells count (cells/mL). […] Next day, the dye was dissolved using Tri-base (0.25%) and absorbance of SRB at 510 nm was recorded from each well using a Tecan plate reader. […]

[2] = system: OMM2.5 uveal melanoma cell line; test: SRB cell viability assay, OMM2.5; assay type: cell-based, Human
Method: as §1, §2, §3

In the case of `Cc1ccnc(-c2cc(C)ccn2)c1.Cc1ccnc(-c2cc(C)ccn2)c1.[Cl-].[Cl-].[Ru+2].c1csc(-c2ccc(-c3ccc(-c4nc5c6cccnc6c6ncccc6c5[nH]4)s3)s2)c1` [TLD1433], the EC50 ([1]; CRMM1, dark, 24 h treatment, SRB, read-out: EC50, dark) is reported as 0.84 µM, the EC50 ([1]; CRMM1, green light 520 nm, 15 min, 21 mW/cm^2, 19 J.cm^−2, DLI 24 h, read-out: EC50,light) is reported as 0.0059 µM and the “PI (photo index)” value ([1]; CRMM1, ratio of dark and light EC50, 19 J.cm^−2 green light) is reported as 140. For the same molecule, the EC50 ([2]; OMM2.5, dark, 24 h treatment, SRB, read-out: EC50, dark) was 0.64 µM, the EC50 ([2]; OMM2.5, green light 520 nm, 15 min, 21 mW/cm^2, 19 J.cm^−2, DLI 24 h, read-out: EC50,light) was 0.013 µM and the “PI (photo index)” value ([2]; OMM2.5, ratio of dark and light EC50, 19 J.cm^−2 green light) was 49.
